Measurements: patent US6380463B1, “Inducible herbicide resistance” (priority 1995, dated 2002)

What was measured:
alcA/alcR system [1] = test: non-solvent chemical treatments, induction of the alcA/alcR switch; assay type: in vivo; settings: non-solvent chemical treatment
alcA/alcR system [2] = test: hydroponic seedling system (root drenching), induced reporter gene expression; assay type: in vivo; settings: FIG. 2
Excerpt: (§1) 3. We have tested the specificity of alcA/alcR system with a range of solvents used in agronomic practice.

alcA/alcR system [3] = settings: applied as a foliar spray, FIG. 3
Excerpt: as §1
FIG. 3 illustrates the levels of induced reporter gene activity when the chemicals listed in Table 1 were applied as a foliar spray;

[4] = system: Brassica napus var Westar; test: kill curve on glyphosate, oil seed rape growing tip plus two leaves in MS medium; assay type: in vivo
Method: (§2) Kill Curves for Tobacco var Samsun and Brassica napus var Westar on glyphosate
(§3) Both species were tested on a range of glyphosate concentrations by inserting, in the case of tobacco a 5-6 mm stem segment carrying a leaf node and in the case of oil seed rape the growing tip plus two leaves into MS medium containing glyphosate at […] glyphosate isopropylamine salt.

Tobacco var Samsun = test: kill curve on glyphosate, tobacco stem segment in MS medium; assay type: in vivo
Method: as §2, §3

[5] = system: 5-enol-pyruvylshikimate-3-phosphate (EPSP) synthase; test: EPSPS assay in plant extracts (14C-labelled phosphoenol pyruvate, HPLC); assay type: biochemical
Method: Assays for 5-enol-pyruvylshikimate-3-phosphate (EPSP) synthase activity in plant extracts were carried out (1) by following the disappearance of the phosphoenol pyruvate substrate (as described by Rubin, J. L., Gaines, C. G and Jensen, R. A., in Plant Physiol (1984 75, 839-845) or (2) by conducting the assay in the reverse direction and coupling to pyruvate kinase and lactate dehydrogenase (as described by Mousdale D. M. and Coggins J. R. in Planta (1984) 160, 78-83) or (3) by using 14(-labelled phosphoenol pyruvate as substrate and detecting the formation of radioactive EPSP by HPLC on an anion exchange column and detecting using a flow-through radioactivity detector as described by Della-Cioppa et al in Proc. Nat. Acad. Sci. (USA) (1986), 83, 6873-6877.

With `C=C` [ethylene] the “induction of the alcA/alcR system” value (alcA/alcR system [1]) was “failed to induce”.

For `CCO` [ethanol], the “levels of induced reporter gene expression” value (alcA/alcR system [2]) was “high levels of induced reporter gene expression” and the “levels of induced reporter gene activity” value (alcA/alcR system [3]) was “high levels of induced reporter gene activity”.

For `C=C1C[C@]23C[C@@]1(O)CC[C@H]2[C@@]12C=C[C@H](O)[C@@](C)(C(=O)O1)[C@H]2[C@@H]3C(=O)O` [gibberelic acid], the “induction of the alcA/alcR system” value (alcA/alcR system [1]) was “failed to induce”.

In the case of `CCC(C)O` (stereo not shown) [butan-2-ol], the “levels of induced reporter gene expression” value (alcA/alcR system [2]) is reported as “high levels of induced reporter gene expression”.

With `O=C(O)CNCP(=O)(O)O` [glyphosate, N-phosphonomethyl-glycine] the “growth scored after two weeks” value ([4]; 0.005 mM in MS medium) was “No stem growth, 1 new leaf, roots to 1 cm”, the “growth scored after two weeks” value ([4]; 0.011 mM in MS medium) was “No stem growth, no new leaves, roots ˜ 0.5 cm” and the “growth scored after two weeks” value ([4]; 0.0275 mM in MS medium) was “No stem growth, no new leaves, roots ˜ 2 mm”. The “growth scored after two weeks” value ([4]; 0.055 mM in MS medium) was “No growth in any organ, ends of stem blackened”, the “growth scored after two weeks” value (Tobacco var Samsun; 0.005 mM in MS medium) was “No growth” and the “growth scored after two weeks” value (Tobacco var Samsun; 0.01 mM in MS medium) was “No growth”. The “growth scored after two weeks” value (Tobacco var Samsun; 0.011 mM in MS medium) was “No growth”, the “growth scored after two weeks” value (Tobacco var Samsun; 0.0275 mM in MS medium) was “No growth” and the “growth scored after two weeks” value (Tobacco var Samsun; 0.055 mM in MS medium) was “No growth”. For the same compound, the “inhibition of EPSP synthase activity” value [5] was “relatively resistant to inhibition”.

For auxin, the “induction of the alcA/alcR system” value (alcA/alcR system [1]) was “failed to induce”.

In the case of `O=C(O)c1ccccc1O` [salicylic acid], the “induction of the alcA/alcR system” value (alcA/alcR system [1]) is reported as “failed to induce”.

`CC1=CC(=O)CC(C)(C)C1(O)/C=C/C(C)=C\C(=O)O` (stereo not shown) [absisic acid] was tested, and the “induction of the alcA/alcR system” value (alcA/alcR system [1]) was “failed to induce”.

For `O=C1CCCCC1` [cyclohexanone], the “levels of induced reporter gene expression” value (alcA/alcR system [2]) was “high levels of induced reporter gene expression”.
